In patent US20120010075A1 (priority 2009, published 2012):
Read-outs that look alike come from different tables or passages of the source.

How the values were obtained:
[1] = system: Leptosphaeria nodorum (LEPTNO); assay: In vitro fungitoxicity of hydrazones with and without copper towards Leptosphaeria nodorum (Example 26); assay type: cell-based; conditions: compound 0.05 μg/mL, 72 h at 25° C.
[2] = system: Leptosphaeria nodorum (glume blotch of wheat); assay: Cu-hydrazone complexes versus parent hydrazones against glume blotch of wheat (Example 32, Table 8); assay type: in vivo, Leptosphaeria nodorum on wheat (cultivar Yuma); conditions: Parastagonospora nodorum, 200 ppm spray, inoculated after 24 h
Phytophthora capsici = assay: Fungitoxicity of copper-hydrazone mixtures of different ratios towards Phytophthora capsici (Example 36, Table 12); assay type: cell-based; conditions: Phytophthora capsici
Procedure: In vitro fungitoxicity assays against Phytophthora capsici were conducted using the copper-minus AS medium described in Example 28. Mixtures containing hydrazone compound 16 at 200 nM and CuCl2.2H2O at 0.2 μM (1:1 molar ratio), 0.8 μM (1:4 ratio), 3.2 μM (1:16 ratio), 12.5 μM (1:62.5 ratio), 50 μM (1:200 ratio) and 200 μM (1:1000 ratio) were prepared in copper-minus AS medium. Two-fold dilution series of these mixtures were then prepared in 100 μL aliquots of copper-minus AS medium in flat-bottomed 96-well microtiter plates. A suspension of P. capsici zoospores in Chelex-treated water at 5×10^4 spores per mL was prepared as in Example 28. Microtiter plates were inoculated with 100 μL of the spore suspension and incubated at 25° C. for 48 h before assessing fungal growth by measuring light scattering in a NepheloStar plate reader.
(§1) Growth inhibition was determined by comparing growth in the presence of copper-hydrazone mixture with growth in control wells lacking the copper-hydrazone mixture. EC50 values were calculated from dose-response curves, and are expressed as the amounts of hydrazone or copper in each test mixture at the rates providing 50% inhibition of growth as compared to a control lacking the copper-hydrazone mixture.

Phytophthora infestans [3] = assay type: in vivo, Phytophthora infestans on tomato; conditions: hydrazone 50 ppm + 50 μM CuCl2.2H2O, applied 24 h before inoculation, assessed 7 days after inoculation, tomato
Phytophthora infestans [4] = assay type: in vivo, Phytophthora infestans on tomato (Outdoor Girl)
Ustilago maydis = assay: In vitro fungitoxicity of hydrazones with and without copper towards Ustilago maydis (Example 29, Table 4); assay type: cell-based; conditions: 1 μg/mL, 48 h
[5] = system: Leptosphaeria nodorum (LEPTNO); assay: Fungitoxicity of copper-hydrazone mixtures of different ratios towards Leptosphaeria nodorum (Example 35, Table 11); assay type: cell-based; conditions: Parastagonospora nodorum
Procedure: In vitro fungitoxicity assays against LEPTNO were conducted using the copper-minus medium described in Example 26. Mixtures containing hydrazone compound 16 at 200 nM and CuCl2 at 0.2 μM (1:1 molar ratio), 0.8 μM (1:4 ratio), 12.5 μM (1:62.5 ratio) and 200 μM (1:1000 ratio) were prepared in copper-minus medium. Two-fold dilution series of these mixtures were then prepared in 100 μL aliquots of copper-minus medium in flat-bottomed 96-well microtiter plates. A suspension of LEPTNO spores in copper-minus medium at 2×10^5 spores per mL was prepared as in Example 26. Microtiter plates were inoculated with 100 μL of the spore suspension and the plates were incubated at 25° C. for 72 h before assessing fungal growth by measuring light scattering in a NepheloStar plate reader.
as §1

[6] = Hydrazone without CuCl2, read-out: Hydrazone EC50
[7] = Hydrazone:Cu ratio 1 to 1, read-out: Hydrazone EC50 (amount of hydrazone in mixture at EC50)
[8] = Hydrazone:Cu ratio 1 to 4, read-out: Hydrazone EC50 (amount of hydrazone in mixture at EC50)
[9] = Hydrazone:Cu ratio 1 to 62.5, read-out: Hydrazone EC50 (amount of hydrazone in mixture at EC50)
[10] = Hydrazone:Cu ratio 1 to 1000, read-out: Hydrazone EC50 (amount of hydrazone in mixture at EC50)
[11] = hydrazone 200 μM + CuCl2 200 μM
[12] = hydrazone 200 μM + CuCl2 400 μM
[13] = hydrazone 200 μM + CuCl2 800 μM
[14] = hydrazone 200 μM + CuSO4 200 μM
[15] = hydrazone 200 μM + CuSO4 400 μM
[16] = hydrazone 200 μM + CuSO4 800 μM
[17] = hydrazone 400 μM + CuCl2 200 μM
[18] = hydrazone 400 μM + CuCl2 400 μM
[19] = hydrazone 400 μM + CuCl2 800 μM
[20] = hydrazone 400 μM + CuSO4 200 μM
[21] = hydrazone 400 μM + CuSO4 400 μM
[22] = hydrazone 400 μM + CuSO4 800 μM

## O=C(N/N=C/c1cc(Cl)cc(Cl)c1O)c1ccccc1 [Example 16]
[1]; Parastagonospora nodorum, 72 h, copper-minus medium, read-out: LEPTNO % Inhn. Minus Copper Observed
  inhibition of growth at 0.05 µg/mL: 0%
[1]; copper-plus medium (CuCl2.2H2O)
  LEPTNO % Inhn. Plus Copper Observed: 97.1%
[2]
  pest or weed control at 200 ppm: 41%
Phytophthora capsici; [6]
  EC50: 143 nM
Phytophthora capsici; [7]
  EC50: 71.1 nM
Phytophthora capsici; [8]
  EC50: 47.1 nM
Phytophthora capsici; Hydrazone:Cu ratio 1 to 16, read-out: Hydrazone EC50 (amount of hydrazone in mixture at EC50)
  EC50: 27.5 nM
Phytophthora capsici; [9]
  EC50: 16.6 nM
Phytophthora capsici; Hydrazone:Cu ratio 1 to 250, read-out: Hydrazone EC50 (amount of hydrazone in mixture at EC50)
  EC50: 7.6 nM
Phytophthora capsici; [10]
  EC50: 4.6 nM
Phytophthora infestans [3]
  TLB % Control: 94.0%
Phytophthora infestans [4]; hydrazone 10 μM + CuCl2 10 μM
  % Control of Tomato Late Blight: 33.5%
  % Control of Tomato Late Blight, predicted (in brackets, Colby): 3.1%
Phytophthora infestans [4]; hydrazone 10 μM + CuCl2 50 μM
  % Control of Tomato Late Blight: 39.7%
  % Control of Tomato Late Blight, predicted (in brackets, Colby): 9.9%
Phytophthora infestans [4]; hydrazone 10 μM + CuCl2 200 μM
  % Control of Tomato Late Blight: 69.0%
  % Control of Tomato Late Blight, predicted (in brackets, Colby): 39.2%
Phytophthora infestans [4]; hydrazone 10 μM + CuCl2 400 μM
  % Control of Tomato Late Blight: 75.7%
  % Control of Tomato Late Blight, predicted (in brackets, Colby): 56.6%
Phytophthora infestans [4]; hydrazone 10 μM + CuCl2 800 μM
  % Control of Tomato Late Blight: 94.2%
  % Control of Tomato Late Blight, predicted (in brackets, Colby): 70.7%
Phytophthora infestans [4]; hydrazone 10 μM + CuSO4 10 μM
  % Control of Tomato Late Blight: 26.3%
  % Control of Tomato Late Blight, predicted (in brackets, Colby): 3.1%
Phytophthora infestans [4]; hydrazone 10 μM + CuSO4 50 μM
  % Control of Tomato Late Blight: 28.1%
  % Control of Tomato Late Blight, predicted (in brackets, Colby): 6.2%
Phytophthora infestans [4]; hydrazone 10 μM + CuSO4 200 μM
  % Control of Tomato Late Blight: 56.0%
  % Control of Tomato Late Blight, predicted (in brackets, Colby): 50.4%
Phytophthora infestans [4]; hydrazone 10 μM + CuSO4 400 μM
  % Control of Tomato Late Blight: 77.3%
  % Control of Tomato Late Blight, predicted (in brackets, Colby): 76.4%
Phytophthora infestans [4]; hydrazone 10 μM + CuSO4 800 μM
  % Control of Tomato Late Blight: 72.2%
  % Control of Tomato Late Blight, predicted (in brackets, Colby): 83.1%
Phytophthora infestans [4]; hydrazone 10 μM alone, no copper
  % Control of Tomato Late Blight: 1.5%
Phytophthora infestans [4]; hydrazone 50 μM + CuCl2 10 μM
  % Control of Tomato Late Blight: 41.9%
  % Control of Tomato Late Blight, predicted (in brackets, Colby): 12.8%
Phytophthora infestans [4]; hydrazone 50 μM + CuCl2 50 μM
  % Control of Tomato Late Blight: 63.0%
  % Control of Tomato Late Blight, predicted (in brackets, Colby): 18.8%
Phytophthora infestans [4]; hydrazone 50 μM + CuCl2 200 μM
  % Control of Tomato Late Blight: 91.5%
  % Control of Tomato Late Blight, predicted (in brackets, Colby): 45.2%
Phytophthora infestans [4]; hydrazone 50 μM + CuCl2 400 μM
  % Control of Tomato Late Blight: 91.7%
  % Control of Tomato Late Blight, predicted (in brackets, Colby): 60.9%
Phytophthora infestans [4]; hydrazone 50 μM + CuCl2 800 μM
  % Control of Tomato Late Blight: 98.3%
  % Control of Tomato Late Blight, predicted (in brackets, Colby): 73.6%
Phytophthora infestans [4]; hydrazone 50 μM + CuSO4 10 μM
  % Control of Tomato Late Blight: 56.8%
  % Control of Tomato Late Blight, predicted (in brackets, Colby): 12.8%
Phytophthora infestans [4]; hydrazone 50 μM + CuSO4 50 μM
  % Control of Tomato Late Blight: 67.7%
  % Control of Tomato Late Blight, predicted (in brackets, Colby): 15.5%
Phytophthora infestans [4]; hydrazone 50 μM + CuSO4 200 μM
  % Control of Tomato Late Blight: 72.9%
  % Control of Tomato Late Blight, predicted (in brackets, Colby): 55.4%
Phytophthora infestans [4]; hydrazone 50 μM + CuSO4 400 μM
  % Control of Tomato Late Blight: 78.0%
  % Control of Tomato Late Blight, predicted (in brackets, Colby): 78.8%
Phytophthora infestans [4]; hydrazone 50 μM + CuSO4 800 μM
  % Control of Tomato Late Blight: 91.6%
  % Control of Tomato Late Blight, predicted (in brackets, Colby): 84.8%
Phytophthora infestans [4]; hydrazone 50 μM alone, no copper
  % Control of Tomato Late Blight: 11.3%
Phytophthora infestans [4]; hydrazone 200 μM + CuCl2 10 μM
  % Control of Tomato Late Blight: 67.8%
  % Control of Tomato Late Blight, predicted (in brackets, Colby): 22.7%
Phytophthora infestans [4]; hydrazone 200 μM + CuCl2 50 μM
  % Control of Tomato Late Blight: 96.6%
  % Control of Tomato Late Blight, predicted (in brackets, Colby): 28.1%
Phytophthora infestans [4]; [11]
  % Control of Tomato Late Blight: 95.8%
  % Control of Tomato Late Blight, predicted (in brackets, Colby): 51.5%
Phytophthora infestans [4]; [12]
  % Control of Tomato Late Blight: 90.8%
  % Control of Tomato Late Blight, predicted (in brackets, Colby): 65.4%
Phytophthora infestans [4]; [13]
  % Control of Tomato Late Blight: 96.7%
  % Control of Tomato Late Blight, predicted (in brackets, Colby): 76.6%
Phytophthora infestans [4]; hydrazone 200 μM + CuSO4 10 μM
  % Control of Tomato Late Blight: 78.0%
  % Control of Tomato Late Blight, predicted (in brackets, Colby): 22.7%
Phytophthora infestans [4]; hydrazone 200 μM + CuSO4 50 μM
  % Control of Tomato Late Blight: 81.3%
  % Control of Tomato Late Blight, predicted (in brackets, Colby): 25.1%
Phytophthora infestans [4]; [14]
  % Control of Tomato Late Blight: 93.2%
  % Control of Tomato Late Blight, predicted (in brackets, Colby): 60.4%
Phytophthora infestans [4]; [15]
  % Control of Tomato Late Blight: 95.8%
  % Control of Tomato Late Blight, predicted (in brackets, Colby): 81.2%
Phytophthora infestans [4]; [16]
  % Control of Tomato Late Blight: 97.5%
  % Control of Tomato Late Blight, predicted (in brackets, Colby): 86.5%
Phytophthora infestans [4]; hydrazone 200 μM alone, no copper
  % Control of Tomato Late Blight: 21.4%
Phytophthora infestans [4]; hydrazone 400 μM + CuCl2 10 μM
  % Control of Tomato Late Blight: 64.4%
  % Control of Tomato Late Blight, predicted (in brackets, Colby): 26.9%
Phytophthora infestans [4]; hydrazone 400 μM + CuCl2 50 μM
  % Control of Tomato Late Blight: 91.7%
  % Control of Tomato Late Blight, predicted (in brackets, Colby): 32.0%
Phytophthora infestans [4]; [17]
  % Control of Tomato Late Blight: 91.7%
  % Control of Tomato Late Blight, predicted (in brackets, Colby): 54.1%
Phytophthora infestans [4]; [18]
  % Control of Tomato Late Blight: 99.8%
  % Control of Tomato Late Blight, predicted (in brackets, Colby): 67.3%
Phytophthora infestans [4]; [19]
  % Control of Tomato Late Blight: 100.0%
  % Control of Tomato Late Blight, predicted (in brackets, Colby): 77.9%
Phytophthora infestans [4]; hydrazone 400 μM + CuSO4 10 μM
  % Control of Tomato Late Blight: 41.5%
  % Control of Tomato Late Blight, predicted (in brackets, Colby): 26.9%
Phytophthora infestans [4]; hydrazone 400 μM + CuSO4 50 μM
  % Control of Tomato Late Blight: 54.5%
  % Control of Tomato Late Blight, predicted (in brackets, Colby): 29.2%
Phytophthora infestans [4]; [20]
  % Control of Tomato Late Blight: 87.2%
  % Control of Tomato Late Blight, predicted (in brackets, Colby): 62.6%
Phytophthora infestans [4]; [21]
  % Control of Tomato Late Blight: 96.6%
  % Control of Tomato Late Blight, predicted (in brackets, Colby): 82.2%
Phytophthora infestans [4]; [22]
  % Control of Tomato Late Blight: 98.3%
  % Control of Tomato Late Blight, predicted (in brackets, Colby): 87.3%
Phytophthora infestans [4]; hydrazone 400 μM alone, no copper
  % Control of Tomato Late Blight: 25.7%
Ustilago maydis; copper-plus medium (CuCl2, 10 μM)
  % Inhn. Plus copper Observed: 80.0%
Ustilago maydis; Mycosarcoma maydis, copper-minus medium, read-out: % Inhn. Minus copper Observed
  inhibition of growth at 1 µg/mL: 0%
[5]; [6]
  EC50: > 3200 nM
[5]; [7]
  EC50: 72.2 nM
[5]; [8]
  EC50: 43 nM
[5]; [9]
  EC50: 28.4 nM
[5]; [10]
  EC50: 14 nM
